Literature values as cited in patent publication US20160002278A1, “Pharmaceutical Compositions for Rectal Administration” (CIPLA LIMITED, priority 2013, published 2016).

Legend:
[1] = animal study, distributed to other vital organs such as lungs
[2] = oral administration

bioavailability (after oral administration): 1%
absorption from the gastrointestinal tract (following oral (PO) administration): minimally absorbed
SMILES: CCc1c(Cl)c(O)c(Cl)c(O)c1C(=O)O[C@H]1[C@H](O)[C@H](OC)[C@H](OC/C2=C\C=C\C[C@H](O)/C(C)=C/[C@H](CC)[C@@H](O[C@@H]3OC(C)(C)[C@@H](OC(=O)C(C)C)[C@H](O)[C@@H]3O)/C(C)=C/C(C)=C/C[C@@H]([C@@H](C)O)OC2=O)O[C@@H]1C [Fidaxomicin]
organ findings after oral administration [1]: dark red discoloration of the lungs and lymph nodes
adverse effects [2]: hives, difficulty in breathing, swelling of face, lips, tongue or throat
